Reference: patent publication US7115650B1, “Compositions for improving fertility” (Ferring BV, priority 1999, dated 2006)

Legend:
Format in all cases: in vivo, rat
[1] = tested on: obese Zucker Diabetic Fatty (ZDF) rats; test: Pituitary LH content by radioimmunoassay in animal model of human infertility; details: treated obese ZDF rats, oral 10 mg/kg/day, end of study; obese control 8.1±0.6, lean 6.3±0.6; p<0.05 vs control
Description: (§1) Obese Zucker Diabetic Fatty males and females as well as fertile lean males and females were put into individual cages and fed with Purina 5008 (6.5% fat). At 6.5 weeks of life, obese rats were randomized into 3 groups: • 1. Control group—obese ZDF rats (n=8) treated with vehicle. • 2. Once-daily treatment group—obese ZDF rats (n=8) given the compound of Example 1B orally once daily (10 mg/kg/day). • 3. Twice-daily treatment group—obese ZDF rats (n=8) given the compound of Example 1B orally twice daily (10 mg/kg/day). Methods
(§2) Blood and pituitaries of lean and obese rats were collected at the end of the study. Pituitary LH and plasma testosterone concentrations were measured by radioimmunoassay. Estrous cyclicity was evaluated by observation of vaginal smear.

[2] = tested on: obese Zucker Diabetic Fatty (ZDF) male rats; test: Plasma testosterone by radioimmunoassay in animal model of human infertility; details: treated obese ZDF males, oral 10 mg/kg/day, end of study; obese 1145±328, lean 2410±239; NS vs lean
Description: as §1, §2

[3] = tested on: obese Zucker Diabetic Fatty (ZDF) female rats; test: Estrous cyclicity by observation of vaginal smear in animal model of human infertility; details: oral 10 mg/kg/day, untreated obese females had abnormal cyclicity vs lean
Description: as §1, §2

CC(C)(C)[C@H](N)C(=O)N1CCC[C@H]1C#N [Example 1B, (2S)-N-((2′S)-2′-amino-3′,3′-dimethylbutanoyl)pyrrolidine-2-carbonitrile]
Pituitary LH content [1]: 5.2±0.4 μg/pituitary | Plasma testosterone level [2]: 2390 ± 759 pg/mL | Estrous cyclicity [3]: normalised estrous cyclicity
